Source: ChEMBL document CHEMBL2073803, “Role of MDR1 and MRP1 in trophoblast cells, elucidated using retroviral gene transfer” (Am J Physiol Cell Physiol, 2003)

Molecular target: ATP-dependent translocase ABCB1 (Homo sapiens, UniProt P08183)
Experiment: TP_TRANSPORTER: efflux in MDR1-expressing BeWo cells
Format: functional, cell-based

Chain of ATP-dependent translocase ABCB1 (P08183 whole entry): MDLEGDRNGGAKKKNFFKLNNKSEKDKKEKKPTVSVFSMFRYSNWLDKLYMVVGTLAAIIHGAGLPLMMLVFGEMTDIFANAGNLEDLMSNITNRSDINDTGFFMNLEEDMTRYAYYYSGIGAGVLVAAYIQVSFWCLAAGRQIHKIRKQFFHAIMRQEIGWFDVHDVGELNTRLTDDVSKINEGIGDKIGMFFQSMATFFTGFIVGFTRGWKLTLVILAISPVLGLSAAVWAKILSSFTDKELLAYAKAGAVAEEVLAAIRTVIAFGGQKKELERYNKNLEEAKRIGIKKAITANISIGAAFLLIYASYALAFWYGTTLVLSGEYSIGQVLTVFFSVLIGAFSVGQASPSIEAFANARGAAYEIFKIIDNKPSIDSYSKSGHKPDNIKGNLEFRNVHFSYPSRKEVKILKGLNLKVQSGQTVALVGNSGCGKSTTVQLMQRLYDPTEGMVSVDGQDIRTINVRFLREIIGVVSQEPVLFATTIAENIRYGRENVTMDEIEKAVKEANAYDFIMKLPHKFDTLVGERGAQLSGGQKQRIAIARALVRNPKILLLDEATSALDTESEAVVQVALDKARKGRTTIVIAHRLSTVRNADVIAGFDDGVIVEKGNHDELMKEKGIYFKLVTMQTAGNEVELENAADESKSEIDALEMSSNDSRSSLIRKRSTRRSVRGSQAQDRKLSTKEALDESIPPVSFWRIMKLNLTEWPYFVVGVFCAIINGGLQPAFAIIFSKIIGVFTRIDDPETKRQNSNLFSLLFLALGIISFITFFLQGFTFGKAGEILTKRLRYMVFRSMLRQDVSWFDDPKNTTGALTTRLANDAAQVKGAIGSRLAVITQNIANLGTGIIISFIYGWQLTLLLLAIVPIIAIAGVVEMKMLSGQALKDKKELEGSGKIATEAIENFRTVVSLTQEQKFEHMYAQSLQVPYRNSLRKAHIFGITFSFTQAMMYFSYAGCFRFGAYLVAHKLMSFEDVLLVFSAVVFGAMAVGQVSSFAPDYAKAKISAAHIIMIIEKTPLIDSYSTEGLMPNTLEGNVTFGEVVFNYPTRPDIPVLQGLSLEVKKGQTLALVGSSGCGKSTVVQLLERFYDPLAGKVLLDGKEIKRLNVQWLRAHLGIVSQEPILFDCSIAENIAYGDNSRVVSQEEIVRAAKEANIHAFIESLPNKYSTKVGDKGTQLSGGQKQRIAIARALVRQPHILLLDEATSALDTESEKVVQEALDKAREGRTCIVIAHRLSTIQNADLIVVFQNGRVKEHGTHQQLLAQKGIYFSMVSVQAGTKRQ

Activity: substrate [+]
SMILES: CC[C@]1(O)C[C@@H]2CN(CCc3c([nH]c4ccccc34)[C@@](C(=O)OC)(c3cc4c(cc3OC)N(C)[C@H]3[C@@](O)(C(=O)OC)[C@H](OC(C)=O)[C@]5(CC)C=CCN6CC[C@]43[C@@H]65)C2)C1 [VINBLASTINE]
